Measurements published in patent publication US11633415B2, “Compounds and methods useful for treating or preventing cancers” (priority 2017, dated 2023).

These compounds were tested against GST-tagged full-length human CK1α (Homo sapiens (Human), UniProt P48729) (assay: Kinase enzymatic assay, mobility shift on LabChip system (AC50)). Details: mean AC50; 5 μM ATP; 1 μM Profiler Pro FL-Peptide 16 substrate.
Assay type: biochemical
Protocol: (§1) Enzymatic assays were performed using a mobility shift assay on the LabChip system. Purified kinase protein was incubated with ATP, substrate, and assay buffer (20 mM Hepes—pH 7.5; 5 mM MgCl2, and 0.01% Triton X-100). The assay reaction was initiated with 5 μM ATP and with each compound present. Compounds were tested at the KM,ATP for the protein target (GST-tagged full-length human CK1α, available from Carna Biosciences, Japan) or over a range of ATP concentrations between 5 μM and 9 μM. […] AC50 values were determined using phosphorylated and unphosphorylated substrates.

GST-tagged full-length human CK1α, sequence (P48729 whole entry): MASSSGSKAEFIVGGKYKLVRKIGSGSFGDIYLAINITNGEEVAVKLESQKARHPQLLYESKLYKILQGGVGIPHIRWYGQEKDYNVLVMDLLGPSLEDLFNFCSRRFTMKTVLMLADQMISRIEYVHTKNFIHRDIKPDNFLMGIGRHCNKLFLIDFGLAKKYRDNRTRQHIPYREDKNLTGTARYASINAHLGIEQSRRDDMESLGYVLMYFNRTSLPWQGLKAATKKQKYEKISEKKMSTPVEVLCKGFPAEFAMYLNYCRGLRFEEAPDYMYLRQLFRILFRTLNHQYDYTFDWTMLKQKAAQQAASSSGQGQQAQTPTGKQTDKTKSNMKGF

| SMILES | AC50 |
| --- | --- |
| CCC(CC)COC(=O)C(C#N)c1nc2ccccc2nc1N1CCNC(C(C)C)C1 (centres unmarked) | 1.39 µM |
| CCC(CC)COC(=O)C(C#N)c1nc2ccccc2nc1N1CCNC(Cc2ccccc2)C1 (centres unmarked) | 1.27 µM |
| N#CC(C(=O)OCC1CCCCCC1)c1nc2ccccc2nc1N1CCNCC1 (centres unmarked) | 0.355 µM |
| CN1CCN(c2nc3ccccc3nc2C(C#N)C(=O)OCC2CCCCC2)CC1 (centres unmarked) | 0.029 µM |
| CCC(CC)COC(=O)C(C#N)c1nc2ccccc2nc1N1CCNC(C)(C)C1 (centres unmarked) | 0.159 µM |
| CC(C)COC(=O)C(C#N)c1nc2ccccc2nc1N1CCC(C(N)=O)CC1 (centres unmarked) | 4.64 µM |
| N#CC(C(=O)OCc1ccncc1)c1nc2ccccc2nc1N1CCNCC1 (centres unmarked) | 0.468 µM |
| N#CC(C(=O)OCC1CCCC1)c1nc2ccccc2nc1N1CCNCC1 (centres unmarked) | 0.138 µM |
| CCC(CC)COC(=O)C(C#N)c1nc2ccccc2nc1N1CCNC(c2ccccc2)C1 (centres unmarked) | 2.22 µM |
| CCC(CC)COC(=O)C(C#N)c1nc2ccccc2nc1N1CCN[C@@H](C)C1 (some centres unmarked) | 1.22 µM |
| CCC(CC)COC(=O)C(C#N)c1nc2ccccc2nc1N1CCNC(CC)C1 (centres unmarked) | 0.958 µM |
| CCC(CC)COC(=O)C(C#N)c1nc2ccccc2nc1N1CCNC(CO)C1 (centres unmarked) | 0.517 µM |
| N#CC(C(=O)OCC1CCCCC1)c1nccnc1N1CCNCC1 (centres unmarked) | 0.304 µM |
| CCC(CC)COC(=O)C(C#N)c1nc2ccccc2nc1N1CCNC(C(=O)OC)C1 (centres unmarked) | 3.15 µM |
| CCC(CC)COC(=O)C(C#N)c1nc2ccccc2nc1NC1CCNCC1 (centres unmarked) | 1.33 µM |
| CCC(CC)COC(=O)C(C#N)c1nc2ccccc2nc1N1CCNC(=O)C1 (centres unmarked) | 1.74 µM |
| N#CC(C(=O)NCC1CCCCC1)c1nc2ccccc2nc1N1CCNCC1 (centres unmarked) | 1.76 µM |
| N#CC(C(=O)OCc1cccnc1)c1nc2ccccc2nc1N1CCNCC1 (centres unmarked) | 0.95 µM |
| N#CC(C(=O)OCC1CCCCC1)c1nc2ccccc2nc1N1CCNCC1 (centres unmarked) | 0.02 µM |
| CCC(CC)COC(=O)C(C#N)c1nc2ccccc2nc1N1CCNC(C)C1 (centres unmarked) | 0.434 µM |
| N#CC(C(=O)OCc1ccc2ccccc2c1)c1nc2ccccc2nc1N1CCNCC1 (centres unmarked) | 3.87 µM |
| CCC(CC)COC(=O)C(C#N)c1nc2ccccc2nc1N1CCN[C@H](C)C1 (some centres unmarked) | 0.333 µM |
| N#C/C(C(=O)OCC1CCCCC1)=C1/Nc2c(F)cccc2N=C1N1CCNCC1 | 1.14 µM |
| N#C/C(C(=O)OCC1CCCCC1)=C1/Nc2ccc(F)cc2N=C1N1CCNCC1 | 0.065 µM |
| N#C/C(C(=O)OCC1CCCCC1)=C1/Nc2ccc(-c3ccccc3F)cc2N=C1N1CCNCC1 | 0.043 µM |
| N#C/C(C(=O)OCC1CCCCC1)=C1/Nc2ccc(-c3ccccc3O)cc2N=C1N1CCNCC1 | 0.043 µM |

| SMILES | AC50 |
| --- | --- |
| N#C/C(C(=O)NCc1ccccc1)=C1/Nc2ccccc2N=C1N1CCNCC1 | 1.92 µM |
| N#C/C(C(=O)OCC1CCCCC1)=C1/Nc2cccc(F)c2N=C1N1CCNCC1 | 0.405 µM |
| N#C/C(C(=O)OCC1CCCCC1)=C1/Nc2ccc([N+](=O)[O-])cc2N=C1N1CCNCC1 | 0.158 µM |
| N#C/C(C(=O)OCC1CCCCC1)=C1/Nc2ccc(-c3ccccc3)cc2N=C1N1CCNCC1 | 0.27 µM |
| N#C/C(C(=O)OCC1CCCCC1)=C1\C=C(N2CCNCC2)N=CN1 | 3.78 µM |
| N#C/C(C(=O)OCC1CCCCC1)=C1/Nc2ccc(-c3ccc(O)cc3)cc2N=C1N1CCNCC1 | 0.013 µM |
| N#C/C(C(=O)OCC1CCCCC1)=C1/Nc2ccc(-c3cccc(F)c3)cc2N=C1N1CCNCC1 | 0.108 µM |
| N#C/C(C(=O)OCC1CCCCC1)=C1/Nc2ccccc2C=C1N1CCNCC1 | 1.33 µM |
| N#C/C(C(=O)OCC1CCCCC1)=C1/Nc2ccc(-c3ccc(F)cc3)cc2N=C1N1CCNCC1 | 0.074 µM |
| N#C/C(C(=O)OCC1CCCCC1)=C1/NC=NC=C1N1CCNCC1 | 0.467 µM |
| N#C/C(C(=O)CCC1CCCCC1)=C1/Nc2ccccc2N=C1N1CCNCC1 | 3.15 µM |
| CN1CCN(c2nc3ccccc3nc2C(C#N)C(=O)OC2CCCCC2)CC1 (centres unmarked) [drawing 113] | 3.5 µM |
| CC(C)(C)COC(=O)C(C#N)c1nc2ccccc2nc1N1CCNCC1 (centres unmarked) [drawing 115] | 0.151 µM |
| CN1CCN(c2nc3ccccc3nc2C(C#N)C(=O)OCC(C)(C)C)CC1 (centres unmarked) [drawing 117] | 0.822 µM |
| N#CC(C(=O)OCc1ccccc1F)c1nc2ccccc2nc1N1CCNCC1 (centres unmarked) [drawing 123] | 1.51 µM |
| CCC(CC)COC(=O)C(C#N)c1nc2ccccc2nc1N1CCC(CN)CC1 (centres unmarked) [drawing 124] | 2.6 µM |
| CCC(CC)COC(=O)C(C#N)c1nc2ccccc2nc1N1CCC(N)CC1 (centres unmarked) [drawing 126] | 4.22 µM |
| N#CC(C(=O)OCc1ccc(F)cc1)c1nc2ccccc2nc1N1CCNCC1 (centres unmarked) [drawing 129] | 2.73 µM |
| N#CC(C(=O)OCc1ccccc1)c1nc2ccccc2nc1N1CCC(N)CC1 (centres unmarked) [drawing 131] | 1.82 µM |
| N#CC(C(=O)OCc1cccc(F)c1)c1nc2ccccc2nc1N1CCNCC1 (centres unmarked) [drawing 134] | 0.353 µM |
| N#CC(C(=O)OCc1cccc(N)c1)c1nc2ccccc2nc1N1CCNCC1 (centres unmarked) [drawing 141] | 3.8 µM |
| CCC(CC)COC(=O)C(C#N)c1nc2ccccc2nc1N1CCN(C)CC1 (centres unmarked) [drawing 142] | 1.34 µM |
| CN1CCN(c2nc3ccccc3nc2C(C#N)C(=O)OCc2ccc(F)cc2)CC1 (centres unmarked) [drawing 146] | 2.04 µM |
| CNC1CCN(c2nc3ccccc3nc2C(C#N)C(=O)OCc2ccccc2)CC1 (centres unmarked) [drawing 147] | 3.65 µM |
| CCC(CC)COC(=O)C(C#N)c1nc2ccccc2nc1N1CCNCC1 (centres unmarked) [drawing 149] | 1.94 µM |

What follows are compounds tested on colorectal carcinoma cell line HT29 (assay: Cell viability assay, HT29). Details: Homo sapiens, HT-29; HT29, 72 hours from plating (48 hours from compound administration).
Assay type: cell-based
Protocol: Cell viability assays were conducted against colorectal carcinoma cell line HT29. Cells were plated in wells and at 24 hours after plating, compounds were added to determine their effect on cell viability at various dosages. After 48 hours from compound administration, the cell viability was determined and the IC50 values were calculated. […] FIG. 4B illustrates the results of another cell viability measurement and IC50 value for Compound 1 assessed by ATP abundance on HT29 at 5 days.

| SMILES | IC50 |
| --- | --- |
| CCC(CC)COC(=O)C(C#N)c1nc2ccccc2nc1N1CCNC(C)(C)C1 (centres unmarked) | 2.13 µM |
| CN1CCN(c2nc3ccccc3nc2C(C#N)C(=O)OCc2ccccc2)CC1 (centres unmarked) | 56.8 µM |
| N#CC(C(=O)OCC1CCCCC1)c1nc2ccccc2nc1N1CCNCC1 (centres unmarked) | 3.78 µM |
| N#C/C(C(=O)OCC1CCCCC1)=C1/Nc2ccc(-c3ccccc3F)cc2N=C1N1CCNCC1 | 1.9 µM |
| N#C/C(C(=O)OCC1CCCCC1)=C1/Nc2ccc(-c3ccccc3O)cc2N=C1N1CCNCC1 | 0.837 µM |
| N#C/C(C(=O)OCC1CCCCC1)=C1/Nc2ccc(-c3ccc(O)cc3)cc2N=C1N1CCNCC1 | 0.472 µM |
| N#C/C(C(=O)OCC1CCCCC1)=C1/Nc2ccc(-c3cccc(F)c3)cc2N=C1N1CCNCC1 | 2.31 µM |
| N#C/C(C(=O)OCC1CCCCC1)=C1/Nc2ccc(-c3ccc(F)cc3)cc2N=C1N1CCNCC1 | 1.78 µM |
| N#C/C(C(=O)OCC1CCCCC1)=C1/Nc2cc(N)ccc2N=C1N1CCNCC1 | 3.71 µM |
| N#C/C(C(=O)OCC1CCCCC1)=C1/Nc2cccc(N)c2N=C1N1CCNCC1 | 5.46 µM |
| CN1CCN(c2nc3ccccc3nc2C(C#N)C(=O)OC2CCCCC2)CC1 (centres unmarked) [drawing 113] | 10000 µM |
| CCN1CCN(c2nc3ccccc3nc2C(C#N)C(=O)OC2CCCCC2)CC1 (centres unmarked) [drawing 166] | 17.4 µM |

These compounds were tested against CSNK1A1 (Homo sapiens (Human), UniProt P48729) (assay: Kinase enzymatic IC50 (Carna Biosciences mobility shift assay)). Details: Table 1, CSNK1A1 inhibitors; read-out: IC50.
Assay type: biochemical
Protocol: as §1

CSNK1A1, sequence (P48729 whole entry): as above

| SMILES | IC50 |
| --- | --- |
| CN1CCN(c2nc3ccccc3nc2C(C#N)C(=O)OCC(C)(C)C)CC1 (centres unmarked) [2,2 dimethyl propyl 2-cyano-2-(3-(4-(methylpiperazin-1-yl)quinoxalin-2-yl)acetate] | 0.715 µM |
| CC(C)(C)COC(=O)C(C#N)c1nc2ccccc2nc1N1CCNCC1 (centres unmarked) [2,2 dimethyl propyl 2-cyano-2-(3-(4-(piperazin-1-yl)quinoxalin-2-yl)acetate] | 0.21 µM |
| CCC(CC)COC(=O)C(C#N)c1nc2ccccc2nc1N1CCC(N)CC1 (centres unmarked) [2-ethylbutyl 2-cyano-2-(3-(4-(amino)piperidin-1-yl)quinoxalin-2-yl)acetate] | 3.32 µM |
| CCC(CC)COC(=O)C(C#N)c1nc2ccccc2nc1N1CCC(CN)CC1 (centres unmarked) [2-ethylbutyl 2-cyano-2-(3-(4-(aminomethyl)piperidin-1-yl)quinoxalin-2-yl)acetate] | 1.75 µM |
| CCC(CC)COC(=O)C(C#N)c1nc2ccccc2nc1N1CCN(C)CC1 (centres unmarked) [2-ethylbutyl 2-cyano-2-(3-(4-(methylpiperazin-1-yl)quinoxalin-2-yl)acetate] | 0.399 µM |
| CCC(CC)COC(=O)C(C#N)c1nc2ccccc2nc1N1CCNCC1 (centres unmarked) [2-ethylbutyl 2-cyano-2-(3-(4-(piperazin-1-yl)quinoxalin-2-yl)acetate] | 0.094 µM |
| N#CC(C(=O)OCc1ccccc1F)c1nc2ccccc2nc1N1CCNCC1 (centres unmarked) [2-fluorobenzyl 2-cyano-2-(3-(4-(piperazin-1-yl)quinoxalin-2-yl)acetate] | 1.88 µM |
| N#CC(C(=O)OCc1cccc(N)c1)c1nc2ccccc2nc1N1CCNCC1 (centres unmarked) [3-aminobenzyl 2-cyano-2-(3-(4-(piperazin-1-yl)quinoxalin-2-yl)acetate] | 4.13 µM |
| N#CC(C(=O)OCc1cccc(F)c1)c1nc2ccccc2nc1N1CCNCC1 (centres unmarked) [3-fluorobenzyl 2-cyano-2-(3-(4-(piperazin-1-yl)quinoxalin-2-yl)acetate] | 0.268 µM |
| CN1CCN(c2nc3ccccc3nc2C(C#N)C(=O)OCc2ccc(F)cc2)CC1 (centres unmarked) [4-fluorobenzyl 2-cyano-2-(3-(4-(methylpiperazin-1-yl)quinoxalin-2-yl)acetate] | 2.89 µM |
| N#CC(C(=O)OCc1ccc(F)cc1)c1nc2ccccc2nc1N1CCNCC1 (centres unmarked) [4-fluorobenzyl 2-cyano-2-(3-(4-(piperazin-1-yl)quinoxalin-2-yl)acetate] | 1.29 µM |
| Nc1ncnc2c1c(COc1cccc(Cl)c1)nn2C1CCOCC1 [PF4800567, 3-(3-chloro-phenoxymethyl)-1-(tetrahydro-pyran-4-yl)-1H-pyrazolo[3,4-d]pyrimidin-4-ylamine, reference compound] | 0.857 µM |
| N#CC(C(=O)OCc1ccccc1)c1nc2ccccc2nc1N1CCC(N)CC1 (centres unmarked) [benzyl 2-(3-(4-aminopiperidin-1-yl)quinoxalin-2-yl)-2-cyanoacetate] | 1.89 µM |
| CNC1CCN(c2nc3ccccc3nc2C(C#N)C(=O)OCc2ccccc2)CC1 (centres unmarked) [benzyl 2-cyano-2-(3-(4-(methylamino)piperidin-1-yl)quinoxalin-2-yl)acetate] | 4.39 µM |
| CCC(CC)COC(=O)C(C#N)c1nc2ccccc2nc1N1CCN(CC)CC1 (centres unmarked) [compound 3, 2-ethylbutyl 2-cyano-2-(3-(4-ethylpiperazin-1-yl)quinoxalin-2-yl)acetate] | 5 µM |
| CN1CCN(c2nc3ccccc3nc2C(C#N)C(=O)OC2CCCCC2)CC1 (centres unmarked) [compound 4, cyclohexyl 2-cyano-2-(3-(4-methylpiperazin-1-yl)quinoxalin-2-yl)acetate] | 3.18 µM |

Same assay, conditions: known inhibitors, background text (rounded Table 1 values); read-out: IC50 against CSNK1A1

| SMILES | IC50 |
| --- | --- |
| Nc1ncnc2c1c(COc1cccc(Cl)c1)nn2C1CCOCC1 [PF4800567, 3-(3-chloro-phenoxymethyl)-1-(tetrahydro-pyran-4-yl)-1H-pyrazolo[3,4-d]pyrimidin-4-ylamine, reference compound] | 0.86 µM |
